Publication PMC8333425, “Discovery of a dual Ras and ARF6 inhibitor from a GPCR endocytosis screen” (Nature Communications, 2021)
“And” between values parts separate entries of the source, which are not always exact repeats. Equal values may be shown once.

Biological target: T1, ARF (Homo sapiens, UniProt P62330)
T1 construct: endogenous in cells; host or cells: HEK293SL
Assay: ARF BRET sensor (GGA3-PBD-RlucII / rGFP-CAAX), AT1R-mediated
Assay type: cell-based
Details: for AngII-promoted BRET, AT1R-mediated ARF activation: individual experiments
Procedure: HEK293 cells were transfected with a BRET sensor that monitors the interaction between β-arrestins and the β-appendage of AP-2 (Fig. 2a)[26],[33]. […] The small GTPase ARF6, which binds β-arrestins and facilitates AP-2 and clathrin recruitment at the PM, is also necessary for CCPs initiation and receptor internalization. Therefore, ARF6 activity was assessed using the protein-3 binding domain (PBD) of the golgi-associated, gamma adaptin ear-containing, ARF-binding protein 3 (GGA3) fused to GST (GST-GGA3-PBD) in a pull-down assay, which allows the detection of GTP-bound ARF6 in cells[34] (Fig. 2b). […] This inhibition was selective for ARF6 since 21 had no effect on AT1R-dependent ARF1 activation (Supplementary Fig. 2a). We also devised a BRET assay to quantitatively assess 21’s action on ARF activity. The ARF BRET assay was created using the GGA3-PBD fused to RlucII (GGA3-PBD-RlucII) and the rGFP anchored at the PM (rGFP-CAAX) (Supplementary Fig. 3a). […] 21 blocked ARF’s activation by 40–60% following AT1R stimulation (Fig. 2c).
HEK293SL cells were seeded at a density of 7.5 × 10^5 cells per 100-mm dish and 24 h later, transiently transfected as such. For receptor internalization experiments, cells were transfected with 0.12 μg AT1R-RlucII, B2R-RlucII, or β2AR-RlucII and 0.48 μg of either rGFP-CAAX (to assess removal from the PM) or rGFP-FYVE (to assess accumulation in the endosomes). For β-arrestin recruitment assays, cells were transfected with 0.48 μg of receptor-YFP along with 0.12 μg of β-arrestin-RlucII. For β-arrestin/AP-2 binding experiments, cells were transfected with 1 μg Flag-AT1R, 1 μg β2-Adaptin-YFP, and 0.12 μg β-arrestin2-RlucII. For G protein activation, cells were transfected with 3 μg of sp-Flag-AT1R along with either 4.5 μg of the Gαq-polycistronic BRET sensor or 0.24 μg of the Gαi3-RlucII and 0.6 μg of GFP10-Gγ2 and Gβ1 sensors or 0.12 μg PKN-RBD-RlucII and 0.48 μg of rGFP-CAAX. For PKC activation, cells were transfected with 3 μg of sp-Flag-AT1R and 0.18 μg of the PKC sensor. For GTPase activation experiments, cells were transfected with 1 μg Flag-AT1R, 0.48 μg of rGFP-CAAX, and either 0.12 μg of GGA3-PBD-RlucII, PAK-CRIB-RlucII or Raf-RBD-RlucII. For biosensor validation experiments, cells were additionally transfected with 500 ng Flag-K-Ras-WT, Flag-K-Ras-G12V, Flag-K-Ras-SOS-CAAX, HA-ARF6-WT, HA-ARF6-T27N, Myc-Rac1-WT, Myc-Rac1-Q61L or Myc-Rac1-T17N. For PI3K/Akt activation experiments, cells were transfected with 0.48 μg of rGFP-CAAX and 0.12 μg of Akt (PH)-RlucII. After 18 h of transfection, the media was replaced and cells were divided for subsequent experiments. Cells were detached and seeded onto poly-L-ornithine-coated 96-well flat white bottom plates (BrandTech Scientific) at a density of 2.5 × 10^4 cells per well in media. The next day, cells were washed once with Tyrode’s buffer (140 mM NaCl, 2.7 mM KCl, 1 mM CaCl2, 12 mM NaHCO3, 5.6 mM D-glucose, 0.5 mM MgCl2, 0.37 mM NaH2PO4, 25 mM HEPES, pH 7.4) and left in Tyrode’s buffer. For kinetics of β-arrestin recruitment or β-arrestin binding to receptor and AP-2 experiments, cells were serum starved for 30 min, pretreated with 21 (50 µM) or Barbadin (100 µM) for 30 min, stimulated with 100 nM AngII or 1 µM BK and BRET signals were monitored at indicated times using a Victor X Light plate reader (PerkinElmer). Coelenterazine H (final concentration of 5 µM) was added 3–5 min prior to BRET measurements. Filter set was 460/80 nm and 535/30 nm for detecting the RlucII Renilla luciferase (donor) and YFP (acceptor) light emissions, respectively. The BRET ratio was determined by calculating the ratio of the light emitted by YFP over the light emitted by the RlucII. For G protein activation, cells were serum starved, pretreated with compounds for 30 min, stimulated with 100 nM AngII for 2 min (Gαq, Gαi3, and Rho sensors) or 5 min (PKC sensor). […]

T1 sequence (P62330 2-175): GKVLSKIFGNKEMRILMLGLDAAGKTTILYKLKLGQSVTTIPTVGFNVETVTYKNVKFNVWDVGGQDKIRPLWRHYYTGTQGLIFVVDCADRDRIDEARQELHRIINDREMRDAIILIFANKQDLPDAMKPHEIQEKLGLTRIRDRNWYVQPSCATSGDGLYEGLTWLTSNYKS

For `CC(C)C(=O)N1CCN(c2ccc(NC(=O)c3cc4ccccc4o3)cc2Cl)CC1` [Compound 21], the “block of ARF activation following AT1R stimulation (BRET)” value (50 μM) was 40–60%, the IC50 (AT1R, dose-response) was 7 µM and the “AngII-promoted BRET, AT1R-mediated ARF activation” value (“AngII-promoted BRET” below) (Comp 21 50 μM, time 0 min) was 0. The “AngII-promoted BRET” value (Comp 21 50 μM, time 2 min) was 0.01817 and 0.0425 and 0.0675, the “AngII-promoted BRET” value (Comp 21 50 μM, time 5 min) was 0.04183 and 0.1107 and 0.06017 and 0.076 and the “AngII-promoted BRET” value (Comp 21 50 μM, time 10 min) was 0.04033 and 0.11 and 0.06283 and 0.0785. For the same compound, the “AngII-promoted BRET” value (Comp 21 (50 μM), time 1 min) was 0.04233 and 0.01117 and 0.065, the “Arf6 MEAN (Fig.4d)” value (Log [Comp 21] (M) -4) was 20.8744 and the “Arf6 MEAN (Fig.4d)” value (Log [Comp21] (M) -4.3) was 30.1774. For the same compound, the “Arf6 MEAN (Fig.4d)” value (Log [Comp21] (M) -5) was 40.2199, the “Arf6 MEAN (Fig.4d)” value (Log [Comp21] (M) -5.3) was 84.9863 and the “Arf6 MEAN (Fig.4d)” value (Log [Comp 21] (M) -6) was 88.0739. The “Arf6 MEAN (Fig.4d)” value (Log [Comp21] (M) -6.3) was 99.6353 and the “Arf6 MEAN (Fig.4d)” value (Log [Comp 21] (M) -7) was 93.4599.
